This is an account of results in patent publication US20110263817A1, “METAL-BINDING COMPOUNDS AND USES THEREFOR” (priority 1999, published 2011).

The nature of data set [1]: Inhibition of hydroxyl radical production, Cu(II)/ascorbic acid deoxyribose/TBA assay, Example 10. In kind it is biochemical. The following applies: for % Inhibition (decrease in absorbance compared to buffer alone): CuCl2 10 μM; for formation of the pink chromogen: data not shown. Here is the method: The ability of the compounds listed above to inhibit the generation of hydroxyl radicals was tested as described in Gutteridge and Wilkins, Biochim. Biophys. Acta, 759:38-41 (1983). Briefly, Cu(II) and ascorbic acid were mixed causing the generation of hydroxyl radicals. Then, deoxyribose was added, and the hydroxyl radicals, if present, attacked the deoxyribose to produce fragments. […]. Thus, absorbance at 532 nm is a measure of the damage to deoxyribose and, therefore, of hydroxyl radical formation.
To perform the assay, CuCl2 in buffer (20 mM KH2PO4 buffer, pH 7.4) and either one of the test compounds in buffer or buffer alone were added to test tubes (final concentration of CuCl2 was 10 μM). The test tubes were incubated for 15 minutes at room temperature. Then, 0.5 mM ascorbic acid in buffer and 1.9 mM 2-deoxy-D-ribose in buffer were added to each test tube, and the test tubes were incubated for 1 hour at 37° C. Finally, 1 ml of 1% (w/v) TBA in 50 mM NaOH and 1 ml of concentrated acetic acid were added to each test tube, and the test tubes were incubated in boiling water for 15 minutes. After the test tubes had cooled for 15 minutes, the absorbance at 532 nm was read.
Histidine and several peptides with histidine in different positions were tested at 1:1 and 2:1 peptide:copper ratios for their ability to inhibit the production of hydroxyl radicals. Also, a peptide having an acetylated aspartic acid (Ac-Asp) as the N-terminal amino acid was also tested. In Table 11, the % inhibition is the percent decrease in absorbance compared to buffer alone divided by the absorbance of the buffer alone.

Data set [2] deals with human umbilical vein endothelial cells (HUVEC). The data set can be described thus: Copper-induced IL-8 secretion from HUVEC (ELISA). Type of data set: cell-based. The following applies: 25 μM CuCl2, 24 hours; P<0.007. Here is the method:
Human umbilical vein endothelial cells (HUVEC) (5.0×10^4 cells) were incubated in serum-free and ascorbate-free endothelial cell basal medium-2 (EGM2) medium (BioWhittaker) with ITS supplement with (i) copper, (ii) a tetrapeptide analogue of the high-affinity, N-terminal Cu(II) binding site of human albumin (D-Asp D-Ala D-His D-Lys or d-DAHK), or (iii) both of them (n=3, in duplicate). IL-8 was determined by ELISA (see Example 13). […] Upon visual examination, all cells appeared to be viable at 24 hours.
Background: In an ELISA, binding on a coated surface is turned into a signal by an enzyme label.

The nature of data set [3]: Inhibition of hydroxyl radical production by peptides, Cu(II)/ascorbic acid deoxyribose/TBA assay, Example 16. In kind it is biochemical. The protocol:
The ability of the peptides listed in Table 14 to inhibit the generation of hydroxyl radicals was tested. Hydroxyl radicals were generated by mixing Cu(II) and ascorbic acid. When deoxyribose was added, the hydroxyl radicals, if present, attacked the deoxyribose to produce fragments. Heating the fragments at low pH produced malonaldehyde that, upon the addition of 2-thiobarbituric acid (TBA), yielded a pink chromogen which was measured spectrophotometrically at 532 nm. Thus, absorbance at 532 nm is a measure of the damage to deoxyribose and, therefore, of hydroxyl radical formation.
To perform the assay, (a) 50 μl of 200 μM CuCl2 in water, (b) water or enough of one of the test peptides in water (total volume of 150 μl) to give peptide:copper ratios of 1:4, 1:2, 1:1, 2:1, 4:1, 6:1 and 8:1, and (c) 525 μl buffer (20 mM KH2PO4 buffer, pH 7.4) were added to test tubes. The test tubes were incubated for 15 minutes at room temperature. Then, 25 μl of 20 mM ascorbic acid in buffer and 250 μl of 7.5 mM 2-deoxy-D-ribose in water were added to each test tube, and the test tubes were incubated for 1 hour at 37° C. Finally, 1 ml of 1% (w/v) TBA in 50 mM NaOH and 1 ml of glacial acetic acid were added to each test tube, and the test tubes were incubated in boiling water for 15 minutes. After the test tubes had cooled for 15 minutes, the absorbance at 532 nm was read. The results are presented in attached FIGS. 26A-V.

Data set [4] in a line: Passage through a model of the blood brain barrier. In kind it is in vitro ADME.
Data set [5] in a line: Cu(II)/H2O2 hydroxyl radical generation, 2-deoxy-D-ribose degradation (TBA, 532 nm), Example 7. In kind it is biochemical. The following applies: CuCl2 0.1 mM, H2O2 2.0 mM. The protocol: The ability of the L-tetrapeptide to inhibit the generation of ROS was tested as described in Gutteridge and Wilkins, Biochim. Biophys. Acta, 759, 38-41 (1983) and Cheeseman et al., Biochem. J., 252, 649-653 (1988). Briefly, Cu(II) and H2O2 were mixed causing the generation of hydroxyl radicals in a Fenton-type reaction. The hydroxyl radicals attack the sugar 2-deoxy-D-ribose (the sugar residue of DNA) to produce fragments. Heating the fragments at low pH produces malonaldehyde that, upon the addition of 2-thiobarbituric acid, yields a pink chromogen which can be measured spectrophotometrically at 532 nm. Thus, the absorbance at 532 nm is a measure of the damage to 2-deoxy-D-ribose.
The assay was performed with and without the L-tetrapeptide. […] Clearly, the L-tetrapeptide inhibited the degradation of 2-deoxy-D-ribose by hydroxyl radicals.

Setting [6] is: compound:copper 1:1, copper only control 0.954.
Where [7] appears, read: compound:copper 2:1, copper only control 0.954.
The mark [8] stands for this setting: compound:copper 1:1, copper only control 0.767.
[9] abbreviates: compound:copper 2:1, copper only control 0.767.
Where [10] appears, read: peptide:copper ratios of 2:1 or less.

Residues, ends and D or L forms follow the SMILES beside them. No end group written: not given here.

As for “L-His L-Lys L-Ser L-Glu L-Val L-Ala L-His L-Arg L-Phe L-Lys (HKSEVAHRFK; listed as Homo sapiens) [His Lys Ser Glu Val Ala His Arg Phe Lys]”, the results for the “% Inhibition (decrease in absorbance compared to buffer alone)” value in data set [1] (compound:copper 1:1) and in data set [1] (compound:copper 2:1) were 24.9% and 46.6%, respectively. Also, the results for the “Absorbance at 532 nm” value in data set [1] (setting [6]) and in data set [1] (setting [7]) were 0.716 and 0.509, respectively.

For the compound `[Cl][Cu][Cl]` [CuCl2], the “IL-8 secretion as compared to controls incubated with water” value in data set [2] is given as > 5.5 fold higher.

“Acetylated-L-Asp L-Ala L-His L-Lys L-Ser L-Glu L-Val L-Ala L-His L-Arg L-Phe L-Lys (Ac-DAHKSEVAHRFK; listed as Homo sapiens)”: the “% Inhibition (decrease in absorbance compared to buffer alone)” value is reported as 16.9% in data set [1] (compound:copper 1:1) and 27.5% in data set [1] (compound:copper 2:1). Further, the “Absorbance at 532 nm” value in data set [1] (setting [8]) was found to be 0.633; in data set [1] (setting [9]), 0.692.

Consider Thr Leu His, for which the “inhibition of hydroxyl radical production” value in data set [3] (setting [10]) is on record as “effectively inhibited hydroxyl radical production”.

Regarding Ser Gly His, in data set [3] (setting [10]), the “inhibition of hydroxyl radical production” value is “effectively inhibited hydroxyl radical production”.

Take Asp Ala His Lys-NH2 (DAHK-NH2): the “inhibition of hydroxyl radical production” value in data set [3] (setting [10]) is reported as “effectively inhibited hydroxyl radical production”.

As to “DAHGMTCANC (cysteine pairing not given here)”, the “inhibition of hydroxyl radical production” value is listed as “complete inhibition” in data set [3] (1:1 peptide:copper ratio) and “effectively inhibited hydroxyl radical production” in data set [3] (setting [10]).

For the compound Catalase, the “formation of the pink chromogen” value in data set [1] (catalase 0-80 nM) is “prevent the formation of the pink chromogen”; in data set [1] (catalase with L-Asp L-Ala L-His L-Lys present at tetrapeptide/copper 1:1), “prevents the formation of the pink chromogen”.

As to Ala Ala His His (AAHH), the “inhibition of hydroxyl radical production” value in data set [3] (1:4 peptide:copper ratio) is “complete inhibition”; in data set [3] (setting [10]), “effectively inhibited hydroxyl radical production”.

Turning to “L-Asp L-Ala L-His L-Lys L-Ser L-Glu L-Val L-Ala L-His L-Arg L-Phe L-Lys (DAHKSEVAHRFK; listed as Homo sapiens)”, the results for the “% Inhibition (decrease in absorbance compared to buffer alone)” value in data set [1] (compound:copper 1:1) and in data set [1] (compound:copper 2:1) were 13.2% and 95.8%, respectively. The “Absorbance at 532 nm” value in data set [1] (setting [8]) came out at 0.645; in data set [1] (setting [9]), 0.040.

As to `C[C@H](NC(=O)[C@@H](N)CC(=O)O)C(=O)N[C@@H](Cc1c[nH]cn1)C(=O)N[C@@H](CCCCN)C(=O)O` [L-Asp L-Ala L-His L-Lys] (H-DAHK-OH), the “passage through a model of the blood brain barrier” value in data set [4] is “pass through a model of the blood brain barrier”. The “Percent Inhibition (degradation of 2-deoxy-D-ribose)” value in data set [5] (tetrapeptide 0.12 mM (Cu(II):tetrapeptide 1:1.2)) amounted to 38%; in data set [5] (tetrapeptide 0.2 mM (Cu(II):tetrapeptide 1:2)) it was 73%.

Regarding “DAHGMTCARC (cysteine pairing not given here)”, in data set [3] (setting [10]), the “inhibition of hydroxyl radical production” value is listed as “effectively inhibited hydroxyl radical production”.

As for “L-Ala L-His L-Lys L-Ser L-Glu L-Val L-Ala L-His L-Arg L-Phe L-Lys (AHKSEVAHRFK; listed as Homo sapiens)”, the “% Inhibition (decrease in absorbance compared to buffer alone)” value amounted to 11.6% in data set [1] (compound:copper 1:1) and 95.1% in data set [1] (compound:copper 2:1). The “Absorbance at 532 nm” value is recorded as 0.843 in data set [1] (setting [6]) and 0.047 in data set [1] (setting [7]).
